Several values for one entry are separate records, joined by “and”; a condition that tells them apart may be missing. Equal values may be shown once.
What was measured:
p38α = target: T1, p38α (Homo sapiens, UniProt Q16539); assay: PROTAC-induced p38α degradation, western blot in MDA-MB-231 cells; type: cell-based; settings: 0.025-5.0 µM survey, ± one s.d., Supplementary Table 1; for DC50: biological duplicates
T1 construct: SJFα PROTAC (13-atom linker, amide attachment) selectively degrades p38α; endogenous in cells; host or cells: MDA-MB-231
T1 sequence (Q16539 whole entry): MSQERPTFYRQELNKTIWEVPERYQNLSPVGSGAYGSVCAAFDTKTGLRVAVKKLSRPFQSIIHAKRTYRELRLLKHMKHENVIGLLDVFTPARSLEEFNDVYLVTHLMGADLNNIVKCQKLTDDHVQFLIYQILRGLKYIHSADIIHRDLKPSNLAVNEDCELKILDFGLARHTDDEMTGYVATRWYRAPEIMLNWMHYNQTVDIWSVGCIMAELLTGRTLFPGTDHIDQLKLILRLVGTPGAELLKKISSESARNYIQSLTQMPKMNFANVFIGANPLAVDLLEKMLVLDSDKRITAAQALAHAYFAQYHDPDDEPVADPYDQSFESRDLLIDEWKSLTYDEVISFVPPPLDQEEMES
Description: (§1) MDA-MB-231 and HeLa cells were obtained from the American Type Culture Collection (ATCC), cultured in RPMI-1640 medium (1 × ) and Dulbecco’s modified Eagle’s medium (DMEM; 1 × ), respectively, containing 10% fetal bovine serum and 1% penicillin–streptomycin and grown in a humidified incubator at 37 °C and 5% CO2.
(§2) […] once with ice-cold PBS (1 × ), followed by lysis in buffer containing 25 mM Tris [pH 7.5], 0.25% sodium deoxycholate, 1% Triton X-100, supplemented with 1X protease inhibitor cocktail (Roche), and phosphatase inhibitors (10 mM NaF, 1 mM Na3VO4, and 20 mM β-glycerophosphate), unless otherwise noted. Lysates were spun at 14,000 × g for 10 min at 4 °C and supernatant was evaluated for protein content using a Pierce BCA Protein Assay (ThermoFisher Scientific). In all experiments, 25–50 μg of protein was loaded onto 10% SDS-PAGE gels or 4–20% Criterion TGX precast gradient gels (Bio-Rad), transferred to nitrocellulose membranes, and probed with the specified antibodies overnight at 4 °C in 1X TBS-Tween (Tris-buffered saline plus 0.02% Tween 20) containing 5% non-fat milk. Immunoblots were visualized using a Bio-Rad ChemiDoc imaging instrument and subsequently processed and quantified using the accompanying Bio-Rad ImageLab software. See Supplementary Figure 8 for uncropped scans of western blots shown in the main text figures.
(§3) Western blot data in Figs. 2, 6, and Supplementary Figures 2, 3 were quantified by using the band feature in Image Lab (Bio-Rad). The p38 values were normalized to the α-tubulin signal to account for differences in protein load, and PROTAC-treated normalized values were expressed as a % of the vehicle-treated (no PROTAC) value, which itself was defined as 100% p38 protein level. […] The sigmoidal fit established both the full extent of degradation, or Dmax at the bottom asymptote of the curve, as well as the DC50, which is the inflection point at which 50% of the total degradation observed was reached.

p38δ = target: T2, p38δ (Homo sapiens, UniProt O15264); assay: PROTAC-induced p38δ degradation, western blot in MDA-MB-231 cells; type: cell-based; settings: 0.025-5.0 µM survey, ± one s.d., Supplementary Table 1; for DC50: biological duplicates
T2 construct: endogenous in cells; host or cells: MDA-MB-231
T2 sequence (O15264 1-365): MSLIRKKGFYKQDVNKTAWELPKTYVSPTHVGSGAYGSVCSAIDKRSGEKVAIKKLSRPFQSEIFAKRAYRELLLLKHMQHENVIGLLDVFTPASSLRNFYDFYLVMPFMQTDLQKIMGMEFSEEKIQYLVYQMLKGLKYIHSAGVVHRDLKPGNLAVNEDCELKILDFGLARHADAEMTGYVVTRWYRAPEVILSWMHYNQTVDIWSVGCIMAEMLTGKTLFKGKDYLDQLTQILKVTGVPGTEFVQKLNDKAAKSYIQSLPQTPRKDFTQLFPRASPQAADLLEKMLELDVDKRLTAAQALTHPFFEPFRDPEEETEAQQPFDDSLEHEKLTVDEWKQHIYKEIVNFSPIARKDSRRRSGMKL
Description: as §1, §2, §3

Row | Compound | DC50 (p38α) [nM] | Dmax p38α (maximum percentage of degradation) (p38α) | DC50 (p38δ) | Dmax p38δ (maximum percentage of degradation) (p38δ)
1 | COc1cc2c(Oc3ccc(NC(=O)C4(C(=O)Nc5ccc(F)cc5)CC4)cc3F)ccnc2cc1OCCCOCCCOCCC(=O)N[C@H](C(=O)N1C[C@H](O)C[C@H]1C(=O)NCc1ccc(-c2scnc2C)cc1)C(C)(C)C | 230 ± 47 | 90.1 ± 4.2% | 456 ± 362 nM | 
2 | COc1cc2c(Oc3ccc(NC(=O)C4(C(=O)Nc5ccc(F)cc5)CC4)cc3F)ccnc2cc1OCCCOCCOCCCOc1cc(-c2scnc2C)ccc1CNC(=O)C1CC(O)CN1C(=O)C(C(C)C)N1Cc2ccccc2C1=O (centres unmarked) [BES-4612] | 760 ± 1500 | 16.8 ± 13.4% | 1890 ± 2350 nM | 78.7 ± 40.8%
3 | COc1cc2c(Oc3ccc(NC(=O)C4(C(=O)Nc5ccc(F)cc5)CC4)cc3F)ccnc2cc1OCCCCOCCCCOc1cc(-c2scnc2C)ccc1CNC(=O)C1CC(O)CN1C(=O)C(C(C)C)N1Cc2ccccc2C1=O (centres unmarked) [SJF-6677] | 127 ± 163 | < 50% and 25.3 ± 6.6% | 106 ± 81.5 nM | < 50% and 43.5 ± 7.2%
4 | COc1cc2c(Oc3ccc(NC(=O)C4(C(=O)Nc5ccc(F)cc5)CC4)cc3F)ccnc2cc1OCCCOCCCOCCCOc1cc(-c2scnc2C)ccc1CNC(=O)C1CC(O)CN1C(=O)C(C(C)C)N1Cc2ccccc2C1=O (centres unmarked) [SJF-6685] | 304 ± 691 |  | 1140 ± 1950 nM | 33.5 ± 27.2%
5 | COc1cc2c(Oc3ccc(NC(=O)C4(C(=O)Nc5ccc(F)cc5)CC4)cc3F)ccnc2cc1OCCCOCCOCCC(=O)N[C@H](C(=O)N1C[C@H](O)C[C@H]1C(=O)NCc1ccc(-c2scnc2C)cc1)C(C)(C)C [SJF-6690] |  | 99.4 ± 2.0% | < 100 nM and 91.7 nM | 96.7 ± 3.7%
6 | COc1cc2c(Oc3ccc(NC(=O)C4(C(=O)Nc5ccc(F)cc5)CC4)cc3F)ccnc2cc1OCCOCCOCCC(=O)N[C@H](C(=O)N1C[C@H](O)C[C@H]1C(=O)NCc1ccc(-c2scnc2C)cc1)C(C)(C)C [SJF-6693] |  | 92.6 ± 2.8% | < 100 nM and 51.4 nM | 81.8 ± 1.9%

Source: publication PMC6328587 (Nature Communications, 2019)
